Measurements taken from article PMC7917639, “Nopol-Based Quinoline Derivatives as Antiplasmodial Agents” (Molecules, 2021).
Several values for one entry are separate records, joined by “and”; a condition that tells them apart may be missing. Identical values can stand only once. Like-named read-outs stand apart in the source and are kept apart here.

Assays:
PfNF54 = PfNF54 erythrocytic stage growth inhibition, [3H]-hypoxanthine incorporation assay; type: cell-based, Plasmodium falciparum; conditions: for EC50: erythrocytic stages, 48 h + 24 h with 3H-hypoxanthine; for PfNF54 selectivity index (SI, CC50/EC50): Hep G2 CC50 / PfNF54 EC50
Procedure: b. PfNH54 and PfK1: The growth inhibitory activities of the compounds against erythrocytic stages of PfNH54 and PfK1 were determined using the [^3H]-hypoxanthine incorporation assay as previously reported. […] The CPMs were expressed as a percentage of the CPMs from the untreated controls and used to estimate the EC50 from sigmoidal inhibition curves. Artemisinin and CQ were used as positive controls.

PfK1 = PfK1 erythrocytic stage growth inhibition, [3H]-hypoxanthine incorporation assay; type: cell-based, Plasmodium falciparum; conditions: for EC50: erythrocytic stages, 48 h + 24 h with 3H-hypoxanthine; for PfK1 selectivity index (SI, CC50/EC50): Hep G2 CC50 / PfK1 EC50; for Antiplasmodial activity against K1 strain (in words): multidrug-resistant strain
Procedure: b. PfNH54 and PfK1: The growth inhibitory activities of the compounds against erythrocytic stages of PfNH54 and PfK1 were determined using the [^3H]-hypoxanthine incorporation assay as previously reported. Parasites in RPMI 1640 medium containing […] (without hypoxanthine) were treated with compounds (50–0.3 µM) in 96 well plates for 48 h at 37 °C in 92% N2, 5% CO2, and 3% O2. ^3H-hypoxanthine (0.5 μCi) was added to each well, incubated for an additional 24 h, harvested onto glass-fiber filters, and washed with distilled water. Radioactivity at each compound concentration was counted using a Betaplate™ liquid scintillation counter (Wallac, Zurich), and the results were recorded as counts per minute (CPM) per well. The CPMs were expressed as a percentage of the CPMs from the untreated controls and used to estimate the EC50 from sigmoidal inhibition curves. Artemisinin and CQ were used as positive controls.

[1] = tested on: P. falciparum 3D7 (Pf3D7, chloroquine-sensitive strain); test: Pf3D7 asexual blood-stage growth inhibition, SYBR Green fluorescence assay; type: cell-based, Plasmodium falciparum; conditions: for EC50: read-out: Pf3D7 EC50; for Pf3D7 selectivity index (SI, CC50/EC50): Hep G2 CC50 / Pf3D7 EC50; for Antiplasmodial activity against Pf3D7 (in words): chloroquine-sensitive strain
Procedure: a. Pf3D7: 100 μL of complete media (Sigma-Aldrich’s RPMI 1640, 25 mM HEPES, 10 μg/mL gentamicin, 0.5 mM hypoxanthine supplemented with NaHCO3 and 0.5% Albumax II, 37 °C) containing compounds (50–0.3 µM) or 100 µM chloroquine were added to 96 well plates in triplicates. This was followed by the addition of 100 µL erythrocytic asexual culture of Pf3D7 (10% hematocrit and 0.25% ring stage parasitemia), maintained at atmospheric conditions of 1% oxygen, 5% carbon dioxide, and 94% nitrogen, and allowed to grow for 96 h at 37 °C. The cultures were then frozen at −80 °C overnight and thawed at 37 °C for 4 h. Aliquots (100 µL) from each well were transferred to black 96-well plates, 100 μL of 2× SYBR Green (Molecular Probes) in lysis buffer (20 mM Tris at pH 7.5, 5 mM EDTA, 0.008% saponin, 0.08% Triton X-100) was added to each well and mixed thoroughly with a pipette. The plates were incubated in the dark at room temperature for 1 h and read at λex 485 nm and λem 530 nm. Infected and untreated red blood cells (iRBC) cultures served as negative control. Percent inhibitory activities were calculated using (=100 − 100*((Sample − 100 µM CQ)/(iRBC − 100 µM CQ)) and used to plot sigmoidal inhibition curves to obtain the EC50 values.

[2] = tested on: Human hepatocarcinoma cell line (Hep G2); test: Cytotoxicity assay (MTT); type: cell-based; conditions: 72 h
Procedure: (§1) Human hepatocarcinoma cell line (Hep G2, ATCC CRL-11997TM) was used for cytotoxicity studies as previously described. The cells were grown in complete medium (DMEM:F12 containing L-glutamine and sodium bicarbonate, 10% FBS, 1% penicillin/streptomycin, Thermo Fisher Scientific) at 37 °C in 5% CO2 environment. Cells (198 µL, 5 × 10^5/mL) were seeded into 96-well plates and incubated overnight. The cells were treated with the compounds (160–1.25 µM, in triplicates) or DMSO (1%) for 72 h. The cell medium was removed and replaced with DMEM:F12 medium containing MTT (0.5 mg/mL) was added to the cells and incubated for 1.5 h. The MTT-containing medium was gently removed and replaced with DMSO (200 µL/well). The contents of each well were then repeatedly mixed with a multichannel pipette and incubated for 10 min. The plates were read at 570 nm. DMSO-treated (1%) cells were used as negative assay control and SDS (10%) was used as assay positive control. Percent cell viabilities were expressed as a percentage of the mean viability of DMSO-treated (1%) cells.

Cytotoxicity assay (MTT) = type: cell-based, Human; conditions: human
Procedure: as §1

[3] = Plasmodium falciparum, 3D7, erythrocytic asexual culture, 96 h, SYBR Green
[4] = erythrocytic asexual culture, 96 h, SYBR Green
[5] = Plasmodium falciparum, 3D7, 96 h

Row | SMILES | Pf3D7 selectivity index (SI, CC50/EC50) [1] | EC50 [1, 4] | CC50 [2] [µM] | EC50 (PfNF54) [µM] | EC50 (PfK1) | further results
1 | C[C@@H]1CC[C@H]2[C@@H](C)C(=O)O[C@@H]3O[C@@]4(C)CC[C@@H]1[C@]32OO4 [Artemisinin, reference compound] | – | – | – | – | – | EC50 (PfNF54; Plasmodium falciparum, 72 h): 0.017 ± 0.005 µM; EC50 (PfK1; Plasmodium falciparum, 72 h): 0.011 ± 0.005 µM
2 | OC(c1cc(C(F)(F)F)nc2c(C(F)(F)F)cccc12)C1CCCCN1 (stereo not drawn) [Mefloquine, reference compound] | – | – | – | – | – | EC50 [1, 3]: 2.33 ± 2.29 µM; EC50 (PfNF54; Plasmodium falciparum, 72 h): 0.003 ± 0.002 µM; EC50 (PfK1; Plasmodium falciparum, 72 h): 0.117 ± 0.015 µM
3 | COc1ccc(NC(=O)CC2=CCC3CC2C3(C)C)c2ncccc12 (single isomer, unassigned) [Compound 2] | > 58.8 | 2.72 ± 0.28 µM | > 160 | – | – | –
4 | Cc1c(Cl)ccc2c(OC(=O)CC3=CC[C@@H]4C[C@H]3C4(C)C)ccnc12 [Compound 11, 7-chloro-8-methylquinolin-4-yl-2-((1S,5R)-6,6-dimethylbicyclo[3.1.1]hept-2-en-2-yl) Acetate] | >9.1 | 17.6 ± 5.27 µM | > 160 | – | – | –
5 | Cc1cc(C(=O)OCCC2=CC[C@@H]3C[C@H]2C3(C)C)c2ccc(Cl)cc2n1 (stereo in doubt) [Compound 13, 2-((1S,5R)-6,6-dimethylbicyclo[3.1.1]hept-2-en-2-yl)ethyl-7-chloro-2-methylquinoline-4-carboxylate] | > 6.9 | – | – | – | – | EC50 [1, 3]: 23 ± 2 µM; Antiplasmodial activity against Pf3D7 (in words) [1]: very weak antiplasmodial activity; CC50 at 72 h (Cytotoxicity assay (MTT); read-out: Hep G2 CC50): > 160 µM
6 | Cc1cc(OC(=O)CC2=CC[C@@H]3C[C@H]2C3(C)C)c2ccc(Cl)c(C)c2n1 [Compound 9, 7-chloro-2,8-dimethylquinolin-4-yl-2-((1S,5R)-6,6-dimethylbicyclo[3.1.1]hept-2-en-2-yl) Acetate] | > 26 | 6.2 µM and 6.15 µM | > 160 | – | – | –
7 | CC1(C)[C@@H]2CC=C(CC(=O)Oc3ccnc4ccccc34)[C@H]1C2 [Compound 7, quinolin-4-yl-2-((1S,5R)-6,6-dimethylbicyclo[3.1.1]hept-2-en-2-yl) Acetate] | – | > 50 µM | > 160 | > 50 | > 28 µM | –
8 | CC1(C)[C@@H]2CC=C(CC(=O)Nc3ccnc4ccccc34)[C@H]1C2 [Compound 5, 2-((1S,5R)-6,6-dimethylbicyclo[3.1.1]hept-2-en-2-yl)-N-(quinolin-4-yl) Acetamide] | 0.2 | 26.4 ± 1.7 µM | 3.98 ± 0.7 | 23.4 ± 0.14 | 13.9 ± 2.1 µM | Antiplasmodial activity against NF54 strain (in words) (PfNF54): weakly active; PfNF54 selectivity index (SI, CC50/EC50) (PfNF54): 0.2; PfK1 selectivity index (SI, CC50/EC50) (PfK1): 0.3; Antiplasmodial activity against K1 strain (in words) (PfK1): weakly active
9 | CC1(C)[C@@H]2CC=C(CC(=O)Oc3cc(C(F)(F)F)nc4ccc(F)cc34)[C@H]1C2 [Compound 10, 6-fluoro-2-(trifluoromethyl)quinolin-4-yl-2-((1S,5R)-6,6-dimethylbicyclo[3.1.1]hept-2-en-2yl) Acetate] | 2.3 | 21.4 ± 5.06 µM | 48.5 ± 1.12 | – | – | –
10 | CCN(CC)CCCC(C)Nc1ccnc2cc(Cl)ccc12 (stereo not drawn) [Chloroquine, reference compound] | – | – | – | – | – | EC50 [1, 5]: 0.004 ± 0.001 µM
11 | CC1(C)C2CC=C(CC(=O)Nc3cccc4cccnc34)C1C2 (single isomer, unassigned) [Compound 4, 2-(6,6-dimethylbicyclo[3.1.1]hept-2-en-2-yl)-N-(quinolin-8-yl) Acetamide] | > 62.3 | 2.57 ± 0.02 µM | > 160 | > 50 | > 50 µM | Antiplasmodial activity against NF54 strain (in words) (PfNF54): inactive; Antiplasmodial activity against K1 strain (in words) (PfK1): inactive
12 | CC1(C)[C@H]2CC=C(CCOC(=O)c3cc4ccccc4[nH]3)[C@@H]1C2 [Compound 15, 2-((1R,5S)-6,6-dimethylbicyclo[3.1.1]hept-2-en-2-yl)ethyl-1H-indole-2-carboxylate] | > 8.5 | – | – | – | – | EC50 [1, 5]: 4.71 ± 0.07 µM; Antiplasmodial activity against Pf3D7 (in words) [1]: moderately active; CC50 at 72 h (Cytotoxicity assay (MTT); Hep G2 cells (human hepatocarcinoma cell line)): > 40 µM
13 | CC1(C)[C@@H]2CC=C(CC(=O)Oc3cc(C(F)(F)F)nc4c(C(F)(F)F)cccc34)[C@H]1C2 [Compound 12, 2,8-bis(trifluoromethyl)quinolin-4-yl-2-((1S,5R)-6,6-dimethylbicyclo[3.1.1]hept-2-en-2-yl) Acetate] | 0.7 | 29.6 ± 0.93 µM | 21.8 ± 1.1 | – | – | –
14 | CC1(C)[C@@H]2CC=C(CC(=O)Oc3ccnc4cc(Cl)ccc34)[C@H]1C2 [Compound 8, 7-chloroquinolin-4-yl-2-((1S,5R)-6,6-dimethylbicyclo[3.1.1]hept-2-en-2-yl) Acetate] | – | > 50 µM | > 160 | 23.3 | 0.16 µM and 0.164 µM | PfNF54 selectivity index (SI, CC50/EC50) (PfNF54): > 6.8; PfK1 selectivity index (SI, CC50/EC50) (PfK1): > 976; Antiplasmodial activity against K1 strain (in words) (PfK1): sub-micromolar EC50
15 | CC1(C)C2CC=C(CC(=O)Nc3cccc4cccnc34)C1C2 (single isomer, unassigned) [Compound 3, 2-(6,6-dimethylbicyclo[3.1.1]hept-2-en-2-yl)-N-(quinolin-8-yl) Acetamide] | > 73.1 | 2.19 ± 0.15 µM | > 160 | > 50 | > 50 µM | Antiplasmodial activity against NF54 strain (in words) (PfNF54): inactive; Antiplasmodial activity against K1 strain (in words) (PfK1): inactive
16 | COc1ccc(NC(=O)CC2=CCC3CC2C3(C)C)c2ncccc12 (single isomer, unassigned) [Compound 1] | 13.4 | 5.25 ± 0.7 µM | 70.8 ± 1.26 | – | – | –
17 | CC1(C)[C@@H]2CC=C(CC(=O)Nc3ccnc4cc(Cl)ccc34)[C@H]1C2 [Compound 6, N-(7-chloroquinolin-4-yl)-2-((1S,5R)-6,6-dimethylbicyclo[3.1.1]hept-2-en-2-yl) Acetamide] | 0.8 | 17.1 ± 1.8 µM | 14.3 ± 1.2 | 21.4 ± 1.7 | 7.84 ± 0.57 µM | Antiplasmodial activity against NF54 strain (in words) (PfNF54): weakly active; PfNF54 selectivity index (SI, CC50/EC50) (PfNF54): 0.7; PfK1 selectivity index (SI, CC50/EC50) (PfK1): 1.8; Antiplasmodial activity against K1 strain (in words) (PfK1): weakly active
